Source: patent publication US11690822B2, “Method for treating non-compaction cardiomyopathy” (EXCELSIOR PHARMATECH LABS, priority 2018, dated 2023)

Tests used:
LVNC cardiomyocytes [1] = assay: Seahorse assay of mitochondrial function (OCR, ECAR) in LVNC-hiPSC-derived cardiomyocytes; assay type: cell-based, human; settings: 5 μM, iH LVNC cardiomyocytes, FIG. 2C
From the text: Human induced pluripotent stem cell (hiPSC) lines respectively derived from patients with left ventricular non-compaction cardiomyopathy (LVNC) and a normal healthy […] were reprogrammed through two approaches; one line of each patient was reprogrammed from skin cells by lentivirus carrying four Yamanaka factors (Klf4, Myc, Sox2, Oct4; conducted by Dr. Hong-Nerng Ho at NTU) and the other line was reprogrammed from peripheral blood monocytes (PBMC) by Sendai virus carrying the four Yamanaka factors (conducted by Dr. Joseph C. Wu at Stanford University). Patients consented to collect patients' tissues/blood cells for genetic examination, reprogramming to hiPSC, and pharmacological studies. […] Cell shortening was measured by the Ionoptix system (Westwood, Mass., USA), and mitochondrial function was assessed by an Agilent seahorse analyzer (Seahorse Bioscience, MA, USA).
Seahorse assay was performed on day 70 to measure mitochondrial OCR (Oxygen Consumption Rate) and ECAR (Extracellular Acidification Rate) under the conditions in the sequential adding of the XF mito stress test kit with the indicated reagents by the arrows. […] The relationship of OCR vs. ECAR was measured under the conditions of basal (before oligomycin) and maximum respiratory capacity (after FCCP).

LVNC cardiomyocytes [2] = assay: Cell shortening (Ionoptix) and inotropic response to isoprenaline in LVNC-hiPSC-CMs; assay type: cell-based, human; settings: 5 μM; isoprenaline 0.03, 0.1, 1 μM; treatment day 30 through day 70; FIG. 3B
From the text: Human induced pluripotent stem cell (hiPSC) lines respectively derived from patients with left ventricular non-compaction cardiomyopathy (LVNC) and a normal healthy […] were reprogrammed through two approaches; one line of each patient was reprogrammed from skin cells by lentivirus carrying four Yamanaka factors (Klf4, Myc, Sox2, Oct4; conducted by Dr. Hong-Nerng Ho at NTU) and the other line was reprogrammed from peripheral blood monocytes (PBMC) by Sendai virus carrying the four Yamanaka factors (conducted by Dr. Joseph C. Wu at Stanford University). Patients consented to collect patients' tissues/blood cells for genetic examination, reprogramming to hiPSC, and pharmacological studies. Drug effect was validated via testing the same drug at the same dose in human cardiomyocytes derived from the two lines of the same patient with at least three independent repeats in each line. Cell shortening was measured by the Ionoptix system (Westwood, Mass., USA), and mitochondrial function was assessed by an Agilent seahorse analyzer (Seahorse Bioscience, MA, USA).

LVNC cardiomyocytes [3] = assay: Proteomic analysis (LC-MS/MS) of LVNC cardiomyocytes treated with or without simvastatin; assay type: cell-based, human
Description: The samples were further digested by trypsin. After being desalted and dried, LC-MS/MS analysis was performed by the LTQ-Orbitrap Velos mass spectrometer system. The peptide and protein group IDs were obtained by MASCOT database searching with precursor mass accuracy of 7 ppm and MS/MS accuracy of 0.5 Da. The large mass-spectrometric raw data were further analyzed by the MaxQuant software based on the Uniprot human database with a label-free quantification method and followed by the statistical analysis using the Perseus software.

[4] = test system: Tnnt2^R154W/+::Mypn^S1291T/+ LVNC mice; assay: Echocardiography of cardiac function (LVEF) in LVNC mice; assay type: in vivo, mouse
Description: Tnnt2(R154W)- and Mypn(S1291T)-knockin mice on C57BL/6j background were generated by Gene Knockout Mouse Core Laboratory of National Taiwan University Center of Genomic Medicine. Genetically heterozygous LVNC mice (Tnnt2(R154W)^+/−:: Mypn(S1291T)^+/−) were obtained from crossing Tnnt2(R154W)^+/− and Mypn(S1291T)^+/− mice. PCR and DNA sequencing were performed to confirm the genotype. All animal procedures and protocols were approved by AAALAC-accredited facility.
The cardiac motion function of LVNC mice was measured through echocardiography in M-mode by the VisualSonic vevo 2100 imaging system (VisualSonic Inc., Toronto, Canada). Cardiac glucose metabolic rate of LVNC mice was measured by dynamic small animal positron emission tomography (PET) observation under anesthetization by 2% isoflurane inhalation. ^18F-FDG (fluorodeoxyglucose 18F) uptake in LVNC mouse heart was measured for the analysis of cardiac glucose metabolic rate (MRGlu) by dynamic small animal positron emission tomography (PET) to examine the changes in cardiometabolism.
Repeated measures two-way ANOVA with multiple comparisons by the Tukey test was used to distinguish the difference in cell shortening velocity between DMSO- and simvastatin-groups on day 50 and day 70 in LVNC-hiPSC-CMs of iFa and iH. […]

## Cc1cc(C)c(CNC(=O)c2cc(-c3ccc(N4CCN(C)CC4)nc3)cc3c2c(C)cn3C(C)C)c(=O)[nH]1 [GSK503]
LVNC cardiomyocytes [1]
  OCR and ECAR of LVNC cardiomyocytes (mitochondrial function): does not significantly improve OCR or ECAR
LVNC cardiomyocytes [1]; listed as gsk
  OCR and ECAR of LVNC cardiomyocytes (mitochondrial function): did not change cardiac mitochondrial dysfunction

## O=C(CCCCCCC(=O)Nc1ccccc1)NO [SAHA]
LVNC cardiomyocytes [2]
  cardiac contraction and positive inotropic response to isoprenaline-induced β-stimulation: unable to improve LVNC cardiac functions

## CC(C)c1c(C(=O)Nc2ccccc2)c(-c2ccccc2)c(-c2ccc(F)cc2)n1CC[C@@H](O)C[C@@H](O)CC(=O)O [atorvastatin]
LVNC cardiomyocytes [2]
  cardiac contraction and positive inotropic response to isoprenaline-induced β-stimulation: the efficacy of simvastatin is better than those of the other statins

## CC[C@H](C)C(=O)O[C@H]1C[C@@H](C)C=C2C=C[C@H](C)[C@H](CC[C@@H]3C[C@@H](O)CC(=O)O3)[C@H]21 [lovastatin]
LVNC cardiomyocytes [2]
  cardiac contraction and positive inotropic response to isoprenaline-induced β-stimulation: the efficacy of simvastatin is better than those of the other statins

## CCC(C)(C)C(=O)O[C@H]1C[C@@H](C)C=C2C=C[C@H](C)[C@H](CC[C@@H]3C[C@@H](O)CC(=O)O3)[C@H]21 [simvastatin]
LVNC cardiomyocytes [3]; iH LVNC cardiomyocytes, FIG. 4C
  number of proteins highly expressed in both healthy/iH,ctrl and iH,s/iH,ctrl: 69 proteins
LVNC cardiomyocytes [3]; two LVNC patients (iFa & iH), FIG. 4D
  number of proteins significantly upregulated in both iF,s/iF,ctrl and iH,s/iH,ctrl: 27 proteins
[4]; S(d1-84): treated initial 84 days, then 42 days drug holiday, P=0.1326, R square=0.3352, not significantly deviated from zero
  slope of linear regression of LVEF % vs. day: 0.05031
[4]; S(d1-126): continuous treatment 126 days, 3.5 mg/kg/day osmotic pump, P=0.0297, R square=0.6445, significantly deviated from zero
  slope of linear regression of LVEF % vs. day: 0.1098
